In ChEMBL document CHEMBL4184115, “In vitro and in silico evaluations of diarylpentanoid series as α-glucosidase inhibitor” (Bioorg Med Chem Lett, 2018):

How the values were obtained:
Alpha glucosidase [1] = molecular target: T1, Alpha glucosidase (Homo sapiens, UniProt O43451+P10253+P14410+Q2M2H8); test: Inhibition of alpha-glucosidase (unknown origin) at 50 uM using 4-Nitrophenyl-alpha-D-glucopyranoside as substrate incubated foe 5 mins followed by substrate addition measured after 15 mins relative to control; type: protein assay
Alpha glucosidase [2] = molecular target: T1, Alpha glucosidase; test: Inhibition of alpha-glucosidase (unknown origin) using 4-Nitrophenyl-alpha-D-glucopyranoside as substrate incubated foe 5 mins followed by substrate addition measured after 15 mins; type: protein assay

Structure (SMILES) | inhibition (Alpha glucosidase [1]) [%] | IC50 (Alpha glucosidase [2]) [µM]
O=C1/C(=C/c2ccccc2)CCC/C1=C\c1ccc(Br)cc1 | 29.1 | –
O=C1/C(=C/c2ccccc2)CCC/C1=C\c1ccccc1Cl | 43 | –
O=C(/C=C(O)/C=C/c1ccco1)c1cc(O)ccc1O | 98.4 | 14.1
O=C1/C(=C/c2ccccc2)CCC/C1=C\c1ccc(Cl)cc1 | 27.6 | –
O=C1/C(=C/c2ccccc2)CCC/C1=C\c1ccc(O)c(O)c1 | 90.7 | 20.3
O=C(C1=C(O)/C(=C/c2cccc(O)c2)CCC1)c1ccccc1 | 43.2 | –
O=C1/C(=C/c2ccccc2)CCC/C1=C\c1cccc(F)c1 | 39.8 | –
O=C1/C(=C/c2ccccc2)CCC/C1=C\c1ccc(F)cc1 | 34 | –
O=C1/C(=C/c2ccccc2)CCC/C1=C\c1cccc(O)c1 | 65.1 | 28.4
O=C(C1=C(O)/C(=C/c2ccc(O)cc2)CCC1)c1ccccc1 | 34.9 | –
O=C(/C=C(O)/C=C/c1cccc(O)c1)c1ccccc1O | 40.4 | –
COc1ccc(/C=C2\CCC/C(=C\c3ccccc3)C2=O)cc1 | 31.4 | –
O=C(/C=C(O)/C=C/c1ccc(O)cc1)c1cc(Cl)ccc1O | 45.3 | –
COc1ccc(/C=C2\CCC/C(=C\c3ccccc3)C2=O)c(OC)c1 | 41 | –
O=C1/C(=C/c2ccccc2)CCC/C1=C\c1ccccc1Br | 46.8 | –
O=C(/C=C(O)/C=C/c1cc(O)ccc1O)c1cc(O)ccc1O | 96.9 | 19.6
O=C(/C=C(O)/C=C/c1ccc(O)c(O)c1)c1ccccc1O | 93.6 | 14.3
O=C(C1=C(O)/C(=C/c2ccc(O)c(O)c2)CCC1)c1ccccc1 | 55.9 | 41

Structure (SMILES) | inhibition (Alpha glucosidase [1]) [%] | IC50 (Alpha glucosidase [2]) [µM]
COc1ccc(OC)c(/C=C2\CCC/C(=C\c3ccccc3)C2=O)c1 | 43.8 | –
COc1cc(/C=C2\CCC/C(=C\c3ccccc3)C2=O)cc(OC)c1OC | 16.3 | –
Cc1ccc(/C=C2\CCC/C(=C\c3ccccc3)C2=O)cc1 | 34.1 | –
O=c1c(O)c(-c2ccc(O)c(O)c2)oc2cc(O)cc(O)c12 [QUERCETIN] | 83.6 | 7.8
O=C1/C(=C/c2ccccc2)CCC/C1=C\c1cccc(Cl)c1Cl | 44 | –
O=C1/C(=C/c2ccccc2)CCC/C1=C\c1ccc(Cl)c(Cl)c1 | 48.4 | –
O=C(/C=C(O)/C=C/c1cc(O)ccc1O)c1ccc(O)cc1O | 86.6 | 20
O=C1/C(=C/c2ccccc2)CCC/C1=C\c1cccc(Br)c1 | 27.2 | –
O=C1/C(=C/c2ccccc2)CCC/C1=C\c1ccccc1F | 43 | –
O=C(/C=C(O)/C=C/c1ccc(O)cc1)c1ccccc1O | 20.4 | –
O=C(/C=C(O)/C=C/c1ccc(O)c(O)c1)c1cc(Cl)ccc1O | 85.6 | 15.1
COc1cccc(/C=C2\CCC/C(=C\c3ccccc3)C2=O)c1OC | 31.8 | –
O=C(/C=C(O)/C=C/c1cccc(O)c1)c1cc(Cl)ccc1O | 62.4 | 36.4
O=C1/C(=C/c2ccccc2)CCC/C1=C\c1ccc(F)c(F)c1 | 37.8 | –
O=C1/C(=C/c2ccccc2)CCC/C1=C\c1ccc(O)cc1 | 53 | 42.3
Cc1cccc(/C=C2\CCC/C(=C\c3ccccc3)C2=O)c1 | 47.9 | –
O=C(/C=C(O)/C=C/c1ccc(O)cc1O)c1ccccc1O | 61.2 | 40.7
